Test results published in patent US20230023092A1, “TREATMENT OF DEPRESSION AND OTHER VARIOUS DISORDERS WITH PSILOCYBIN” (COMPASS […], priority 2019, published 2023).

Test system: healthy subjects
Experiment: Phase 1 study: adverse events (TEAEs, MedDRA coded)
Type: in vivo, human
Method: A Phase 1 randomized, double-blind, placebo-controlled study to evaluate the effect of psilocybin on cognitive and emotional processing as compared to placebo in healthy volunteers was conducted. The study investigated the short-term (Day 7) and long-term (Day 28) effects of moderate (10 mg) and high doses (25 mg) of psilocybin on key domains of cognition, such as episodic memory, attention, working and spatial memory, social cognition and elements of executive function, including cognitive flexibility.
Each subject was assigned 1 treatment bottle containing 5 capsules packaged in a double-blind fashion, depending on the randomized treatment arm, the bottle contained one of the following: • a. Psilocybin 10 mg: 2×5-mg oral psilocybin capsules plus 3×placebo capsules • b. Psilocybin 25 mg: 5×5-mg oral psilocybin capsules • c. Placebo: 5×placebo capsules
Each 5-mg oral psilocybin capsules comprised 5 mg crystalline psilocybin in the form or Polymorph A, 12.5 mg of SMCC 50, 79.5 mg of SMCC 90, 1 mg sodium starch glycolate, 1 mg colloidal silicon dioxide, and 1 mg sodium stearyl fumarate
Adverse events: Throughout the course of the study, all AEs were monitored and recorded. Each AE was classified according to the following criteria: • i. […] Moderate: The AE produces some impairment of functioning, but is not hazardous to the subject's health. • iii. Severe: The AE produces significant impairment of functioning or incapacitation and is a definite hazard to the subject's health.
Visit 3 (V3): Drug Administration (Day 0): The subject was asked to eat a light breakfast at least two hours prior to coming to the clinic for study drug administration. On Day 0 (V3), the subject underwent the SSTS, had vital signs obtained, medications reviewed, AEs recorded and eligibility reviewed prior to being randomized to study drug. The study drug was administered to up to six subjects simultaneously in individual beds separated by a curtain. The subject was invited to put on eyeshades and headphones, lie down and listen to calming music for the rest of the session (six hours). The subject was supported 1:1 with a chaperone and supervised by the study psychiatrist and lead therapist.
During administration of psilocybin, each subject received one-on-one support from a trained assisting therapist and each dosing session was supervised by a study psychiatrist and a lead therapist. The study drug was administered simultaneously to up to six participants as a single 5-capsule oral dose (10 mg psilocybin: 2×5-mg psilocybin capsules plus 3×placebo capsules; 25 mg psilocybin: 5×5-mg psilocybin capsules; placebo: 5×placebo capsules). Twenty-five dosing sessions were completed, with up to six participants dosed simultaneously per session. Each session lasted approximately 6 to 8 hours with subjects encouraged to relax and engage in introspection for the duration. After the acute effects of the study drug had subsided, subjects were discharged.

CN(C)CCc1c[nH]c2cccc(OP(=O)(O)O)c12 [Psilocybin, psilocybin]
2 (6.7): Infections and infestations, worst severity Mild, N (%) (10 mg oral) | Infections and infestations, worst severity Moderate, N (%) (10 mg oral) | Investigations, N (%) (10 mg oral) | Investigations, worst severity Mild, N (%) (10 mg oral) | Mood altered, worst severity Mild, N (%) (10 mg oral) | Selected TEAE: Nervous system disorders, N (%) (10 mg oral) | Tension headache, worst severity Moderate, N (%) (10 mg oral) | Time perception altered, N (%) (10 mg oral)
23: Mood altered, Events (10 mg oral) | Nervous system disorders, worst severity Mild, Events (10 mg oral)
8 (26.7): Somatic hallucination, N (%) (10 mg oral)
4 (13.3): Infections and infestations, N (%) (10 mg oral) | Paraesthesia, N (%) (10 mg oral) | Paraesthesia, worst severity Mild, N (%) (10 mg oral) | Psychiatric disorders, worst severity Mild, N (%) (10 mg oral)
1 (3.3): Memory impairment, N (%) (10 mg oral) | Musculoskeletal and connective tissue disorders, N (%) (10 mg oral) | Musculoskeletal and connective tissue disorders, worst severity Moderate, N (%) (10 mg oral) | Nausea, N (%) (10 mg oral) | Psychomotor skills impaired, N (%) (10 mg oral) | Somatic hallucination, worst severity Mild, N (%) (10 mg oral) | Tension headache, worst severity Mild, N (%) (10 mg oral) | Time perception altered, worst severity Mild, N (%) (10 mg oral) | Time perception altered, worst severity Moderate, N (%) (10 mg oral)
15 (50.0): Nervous system disorders, worst severity Mild, N (%) (10 mg oral)
96.7%: Adverse events reported by % of subjects (10 mg oral, 12-week study)
4: Infections and infestations, Events (10 mg oral) | Paraesthesia, Events (10 mg oral) | Paraesthesia, worst severity Mild, Events (10 mg oral) | Reported 'Mood altered' events: Sense of oneness (number) (10 mg psilocybin (n = 30))
12 (40.0): Illusion, worst severity Moderate, N (%) (10 mg oral)
2: Infections and infestations, worst severity Mild, Events (10 mg oral) | Infections and infestations, worst severity Moderate, Events (10 mg oral) | Investigations, Events (10 mg oral) | Investigations, worst severity Mild, Events (10 mg oral) | Mood altered, worst severity Mild, Events (10 mg oral) | Selected TEAE: Nervous system disorders, Events (10 mg oral) | Tension headache, worst severity Moderate, Events (10 mg oral) | Time perception altered, Events (10 mg oral) | Reported 'Mood altered' events: Increased empathy (number) (10 mg psilocybin (n = 30))
5 (16.7): Mood altered, worst severity Moderate, N (%) (10 mg oral)
21: Psychiatric disorders, worst severity Severe, Events (10 mg oral)
13 (43.3): Mood altered, N (%) (10 mg oral) | Psychiatric disorders, worst severity Moderate, N (%) (10 mg oral)
35: Nervous system disorders, Events (10 mg oral)
1: Memory impairment, Events (10 mg oral) | Musculoskeletal and connective tissue disorders, Events (10 mg oral) | Musculoskeletal and connective tissue disorders, worst severity Moderate, Events (10 mg oral) | Nausea, Events (10 mg oral) | Psychomotor skills impaired, Events (10 mg oral) | Somatic hallucination, worst severity Mild, Events (10 mg oral) | Tension headache, worst severity Mild, Events (10 mg oral) | Time perception altered, worst severity Mild, Events (10 mg oral) | Time perception altered, worst severity Moderate, Events (10 mg oral) | Reported 'Mood altered' events: Being less judgmental (number) (10 mg psilocybin (n = 30)) | Reported 'Mood altered' events: Contemplative state (number) (10 mg psilocybin (n = 30)) | Reported 'Mood altered' events: Feeling more moody/sensitive (number) (10 mg psilocybin (n = 30)) | Reported 'Mood altered' events: Feeling rested (number) (10 mg psilocybin (n = 30)) | Reported 'Mood altered' events: Increased wit (number) (10 mg psilocybin (n = 30)) | Reported 'Mood altered' events: Laughter (number) (10 mg psilocybin (n = 30)) | Reported 'Mood altered' events: Sense of openness (number) (10 mg psilocybin (n = 30))
6 (20.0): Mood altered, worst severity Severe, N (%) (10 mg oral) | Nervous system disorders, worst severity Moderate, N (%) (10 mg oral)
16: Illusion, worst severity Moderate, Events (10 mg oral)
21 (70.0): Nervous system disorders, N (%) (10 mg oral)
5: Reported 'Mood altered' events: Introspection (number) (10 mg psilocybin (n = 30))
10 (33.3): Psychiatric disorders, worst severity Severe, N (%) (10 mg oral)
27 (90.0): Psychiatric disorders, N (%) (10 mg oral) | Selected TEAE: Psychiatric disorders, N (%) (10 mg oral)
7: Illusion, worst severity Mild, Events (10 mg oral) | Somatic hallucination, worst severity Moderate, Events (10 mg oral)
3 (10.0): Tension headache, N (%) (10 mg oral)
7 (23.3): Illusion, worst severity Mild, N (%) (10 mg oral) | Somatic hallucination, worst severity Moderate, N (%) (10 mg oral)
9: Mood altered, worst severity Severe, Events (10 mg oral)
121: Psychiatric disorders, Events (10 mg oral)
8: Mood altered, worst severity Moderate, Events (10 mg oral) | Nervous system disorders, worst severity Moderate, Events (10 mg oral) | Somatic hallucination, Events (10 mg oral)
29: Psychiatric disorders, worst severity Moderate, Events (10 mg oral)
19 (63.3): Illusion, N (%) (10 mg oral)
0: Hypoaesthesia, worst severity Moderate, N (%) (10 mg oral) | Hypoaesthesia, worst severity Severe, Events (10 mg oral) | Hypoaesthesia, worst severity Severe, N (%) (10 mg oral) | Illusion, worst severity Severe, Events (10 mg oral) | Illusion, worst severity Severe, N (%) (10 mg oral) | Infections and infestations, worst severity Severe, Events (10 mg oral) | Infections and infestations, worst severity Severe, N (%) (10 mg oral) | Investigations, worst severity Moderate, Events (10 mg oral) | Investigations, worst severity Moderate, N (%) (10 mg oral) | Investigations, worst severity Severe, Events (10 mg oral) | Investigations, worst severity Severe, N (%) (10 mg oral) | Mental fatigue, Events (10 mg oral) | Mental fatigue, N (%) (10 mg oral) | Musculoskeletal and connective tissue disorders, worst severity Mild, Events (10 mg oral) | Musculoskeletal and connective tissue disorders, worst severity Mild, N (%) (10 mg oral) | Musculoskeletal and connective tissue disorders, worst severity Severe, Events (10 mg oral) | Musculoskeletal and connective tissue disorders, worst severity Severe, N (%) (10 mg oral) | Nervous system disorders, worst severity Severe, Events (10 mg oral) | Nervous system disorders, worst severity Severe, N (%) (10 mg oral) | Paraesthesia, worst severity Moderate, Events (10 mg oral) | Paraesthesia, worst severity Moderate, N (%) (10 mg oral) | Paraesthesia, worst severity Severe, Events (10 mg oral) | Paraesthesia, worst severity Severe, N (%) (10 mg oral) | Respiratory, thoracic and mediastinal disorders, Events (10 mg oral) | Respiratory, thoracic and mediastinal disorders, N (%) (10 mg oral) | Somatic hallucination, worst severity Severe, Events (10 mg oral) | Somatic hallucination, worst severity Severe, N (%) (10 mg oral) | Substance-induced psychotic disorder, Events (10 mg oral) | Substance-induced psychotic disorder, N (%) (10 mg oral) | Tension headache, worst severity Severe, Events (10 mg oral) | Tension headache, worst severity Severe, N (%) (10 mg oral) | Time perception altered, worst severity Severe, Events (10 mg oral) | Time perception altered, worst severity Severe, N (%) (10 mg oral) | Reported 'Mood altered' events: Calm (number) (10 mg psilocybin (n = 30)) | Reported 'Mood altered' events: Clarity of thought (number) (10 mg psilocybin (n = 30)) | Reported 'Mood altered' events: Feeling of adrenaline release (number) (10 mg psilocybin (n = 30)) | Reported 'Mood altered' events: Increased compassion (number) (10 mg psilocybin (n = 30)) | Reported 'Mood altered' events: Increased creativity (number) (10 mg psilocybin (n = 30)) | Reported 'Mood altered' events: Increased sense of connectedness (number) (10 mg psilocybin (n = 30)) | Reported 'Mood altered' events: More socially upbeat (number) (10 mg psilocybin (n = 30)) | Reported 'Mood altered' events: Negative mood (number) (10 mg psilocybin (n = 30)) | Reported 'Mood altered' events: Saw themselves from a new perspective (number) (10 mg psilocybin (n = 30)) | Reported 'Mood altered' events: Unusual appreciation of music (number) (10 mg psilocybin (n = 30))
95.9%: AEs deemed potentially related to study treatment, % of AEs of the arm (25 mg oral)
3: Tension headache, Events (10 mg oral) | Reported 'Mood altered' events: Reflections (number) (10 mg psilocybin (n = 30)) | Affect lability, Events (25 mg oral)
6: Psychiatric disorders, worst severity Mild, Events (10 mg oral)
25: Illusion, Events (10 mg oral)
104: Selected TEAE: Psychiatric disorders, Events (10 mg oral)
